30 compounds from PubChem BioAssay (NCI) can be followed below.

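Exposure lasted 48 hours, with cells grown in 96-well plates and compounds tested at five concentrations. At the GI50, growth is halved. TGI marks complete inhibition of growth.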

What all share (assay): NCI-60 cell line screen, 48 h
The subject of test [1] is MDA-N.
The subject of test [2] is 786-0 renal.
Test [3] deals with SK-MEL-5 melanoma.
The test system of test [4] is A498 renal.
The subject of test [5] is DU-145 prostate.
For test [6], the system named is NCI/ADR-RES ovarian.
Test [7] relates to SNB-19 CNS.
Test [8] concerns MDA-MB-231 breast.
The subject of test [9] is MCF7 breast.
The test system of test [10] is SR leukemia.
In test [11] the test system is SF-268 CNS.

Consider `COc1ccc(-n2c(=O)n(-c3ccccc3)c(=O)n2-c2ccc(OC)cc2)cc1`, for which the TGI in test [1], in test [2], in test [3], in test [4], in test [5] and in test [6] was over 100 µM in each case. Moreover, the TGI in test [7], in test [8] and in test [9] was over 100 µM each time.
Take `O=c1[nH]c(=O)n(C2CC(O)C(CO)O2)cc1C#Cc1ccc(F)cc1` (stereo unspecified): the TGI in test [2], in [3], in test [10], in test [11] and in test [7] was over 100 µM each time.
With `ClCc1cccc(CSc2ncnc3c2ncn3Cc2cccc(CCl)c2)c1`, the GI50 is 1.56 µM in test [3]; 2.82 µM in test [10]; 11.1 µM in test [4]; 1.99 µM in test [11]; 1.85 µM in [5]; 2.11 µM in test [6]. In addition, the GI50 in test [7] is 1.85 µM; in test [8], 1.93 µM; in [9], 1.59 µM. In addition, the TGI was 2.9 µM in [3]; 9.89 µM in test [10]; 23.6 µM in [4]; 4.91 µM in [11]; 3.3 µM in [5]; 6.83 µM in [6]. Also, the TGI was determined as 3.46 µM in test [7], 3.82 µM in test [8] and 3.3 µM in test [9].
For `N#Cc1c(-c2ccc(Cl)cc2)c2c(N=Nc3c(O)ccc4ccccc34)[nH]nc2[nH]c1=O`, the TGI in test [1] stood at 2.08 µM; in [2], 2.04 µM; in test [3], 1.62 µM; in [4] it was 0.468 µM; in test [11], 1.66 µM; in [5], 1.07 µM. Besides, the TGI in test [6] amounted to 0.777 µM; in [7], 1.91 µM; in test [8], 1.08 µM; in test [9], 0.982 µM.
Consider `CNC(=O)OC(COC)CN1CCN(c2ccccc2C)CC1` (stereo unspecified), for which the TGI in test [2], in test [3], in test [10], in test [4], in test [11] and in test [5] was over 10 µM throughout. Besides, the TGI in [6], in test [7], in test [8] and in test [9] was over 10 µM each time.
`OC12c3ccccc3C3CCC4(OCCO4)C3C1c1ccccc12` (stereo unspecified): the TGI in test [2], in test [3], in test [4], in test [11] and in test [7] was over 100 µM each time.
Regarding `Cc1ccc2oc3c(c(Br)c(Br)n3C)c(=O)c2c1`, the TGI in test [2] was 30.3 µM; in test [3], over 100 µM; in test [4], 41.3 µM; in test [11], over 100 µM; in [5] it was over 100 µM; in test [6], 52.5 µM. Moreover, the values for the TGI in test [7], in test [8] and in test [9] were 36 µM, 43.5 µM and over 100 µM, respectively.
On to `COc1ccc2[nH]c3c(C)cc([N+](=O)[O-])c(C)c3c2c1`, for which the TGI in [2] is over 100 µM; in test [3], 88.4 µM; in test [10] it was 58.5 µM; in [4], 59.6 µM; in test [11], over 100 µM; in test [7] it was over 100 µM.
With `CC1(C)CC(=O)c2c(nc3c(ccc4ccccc43)c2-c2ccc(NC(=O)CCCCC(=O)Nc3ccc(-c4c5c(nc6c4ccc4ccccc46)CC(C)(C)CC5=O)cc3)cc2)C1`, the TGI in [1] was 68.3 µM; in test [2], over 100 µM; in [3], over 100 µM; in test [11], over 100 µM; in [5] it was over 100 µM; in [6] it was 77.6 µM. The figures for the TGI in test [7], in [8] and in [9] were over 100 µM, 64.6 µM and over 100 µM, respectively.
On to `COc1ccc2c(c1)c(=O)c1c(NCCN(C)C)ccc3nnn2c31`, for which the TGI in test [2] was found to be 14.8 µM; in test [3], 14.1 µM; in test [10], 2.9 µM; in test [4], 21.7 µM; in [11], 14.9 µM; in [7] it was 19.7 µM.
As for `CCC(O)c1ccc(N=Cc2ccccc2O)cc1` (stereo unspecified), the TGI in test [2], in test [3], in test [10], in test [4], in test [11] and in test [5] was over 100 µM in each case. For the same compound, the TGI in [6], in test [7], in [8] and in test [9] was over 100 µM throughout.
With `Cc1ccc(NC(=O)/C(=N/N(C)C)C(C2OC(=O)c3ccccc32)[N+](=O)[O-])cc1` (stereo unspecified), the TGI in [1], in test [2], in test [3], in test [4], in test [11] and in test [6] was over 100 µM each time. Moreover, the TGI in [8] and in test [9] was over 100 µM in each case.
Consider `CC(CN(C)C)C(=O)c1ccccc1` (stereo unspecified), for which the TGI in test [2] was over 52.3 µM; in [3], over 100 µM; in test [10] it was 60.2 µM; in test [4], over 76.5 µM; in test [11], 85 µM; in test [7], over 100 µM.
For the compound `O=C(NCCNc1nccc(-c2c(-c3cccc(O)c3)nc3sccn23)n1)c1ccccc1`, the GI50 in [3] is 4.15 µM; in [10], 5.68 µM; in test [4], 3.68 µM; in [11], 15.5 µM; in test [5], 19.7 µM; in test [6], 34.8 µM. The GI50 in test [7] is 29.4 µM; in test [8] it was 7.05 µM; in test [9], 3.24 µM. The TGI is 17.5 µM in [3]; 50 µM in test [10]; 19.3 µM in [4]; 87 µM in [11]; 68.7 µM in test [5]; over 100 µM in [6]. Besides, the figures for the TGI in [7], in [8] and in test [9] were over 100 µM, 31.5 µM and 14.9 µM, respectively.
Regarding `C#CC1(O)CCC2[C@@H]3CCc4cc(Oc5nc(F)nc(-c6c7ccccc7cn6C)n5)ccc4C3CC[C@@]21C` (stereo partly specified), the TGI was over 100 µM in test [2]; over 72.6 µM in test [10]; over 100 µM in [4]; over 100 µM in test [11]; over 100 µM in test [7].
Consider `Cc1cc(O)c(/C=N/C(=S)Nc2ccccc2)c(=O)o1`, for which the TGI in test [1], in test [2], in test [3], in test [4], in [11] and in test [5] was over 100 µM in each case. Besides, the TGI in test [6], in [7], in test [8] and in test [9] was over 100 µM throughout.
With `COc1ccc(C2C3CCCC(C3=O)C(c3ccc(OC)cc3)N2N=O)cc1` (stereo unspecified), the TGI was 32.4 µM in test [3]; 25.4 µM in test [4]; over 100 µM in test [11]; over 87.2 µM in [6]; over 91.2 µM in test [7]; 38.2 µM in test [9].
Take `O=C(OC/C=C1C=C(OC(=O)c2ccccc2)/C(=N/N(C(=O)c2ccccc2)c2ccccc2)O\1)c1ccccc1`: the TGI was 2.95 µM in [2]; 35.5 µM in test [3]; 25.6 µM in test [4]; 6.85 µM in test [11]; 23 µM in test [7]. Besides, the GI50 in test [3] is 19 µM.
On to `C=CCN(c1cc(OC)c2[nH]c(C(=O)OCC)c(C)c2c1[N+](=O)[O-])S(C)(=O)=O`, for which the TGI was 52.7 µM in [1]; over 100 µM in test [2]; 44.8 µM in test [3]; 65.6 µM in [4]; over 100 µM in test [11]; over 100 µM in test [5]. Besides, the TGI in test [6] is 72.6 µM; in test [7], over 100 µM; in test [8] it was 33.7 µM; in test [9], 52.2 µM.
`N#CCN(CC#N)C1CC=CCC1N(CC#N)CC#N` (stereo unspecified): the TGI in test [1], in test [2], in test [3], in test [11], in [5] and in test [6] was over 100 µM each time. In addition, the TGI in [7], in test [8] and in test [9] was over 100 µM in each case.
As to `O=C(Nc1cccc2ccccc12)c1ccccc1`, the TGI in test [1], in test [2], in test [3], in test [4], in test [11] and in test [5] was over 100 µM each time. For the same compound, the TGI in [6], in test [7], in test [8] and in test [9] was over 100 µM throughout.
Turning to `c1ccc2c(c1)ccn1ccc3c4ccccc4nc-3c21`, the TGI was 1.31 µM in [2]; 1.71 µM in test [3]; 0.892 µM in [4]; 2.29 µM in test [11]; 1.72 µM in test [5]; 2.17 µM in [6]. The results for the TGI in test [7], in [8] and in [9] were 3.14 µM, 2.2 µM and 1.11 µM, respectively.
With `COc1ccc(C(=O)N/N=C/c2c(C)n(C)n(-c3ccccc3)c2=O)cc1`, the TGI in [2], in test [10], in test [4], in test [11] and in test [7] was over 100 µM in each case.
Turning to `CCOC(=O)c1c(N2CCCC2)ncn(C)c1=S`, the TGI in test [2], in [3], in test [10], in [4], in [11] and in [5] was over 100 µM in each case. Moreover, the TGI in [6], in [7], in test [8] and in [9] was over 100 µM in each case.
With `O=C(Nc1sccc1S(=O)(=O)c1ccccc1)c1ccccc1`, the TGI in [1], in test [2], in test [3], in [4], in test [11] and in test [5] was over 100 µM in each case. The TGI in [6], in test [7], in test [8] and in test [9] was over 100 µM throughout.
Consider `CCn1c2c(c3ccccc31)C(c1ccccc1)CC1C(=O)N(c3ccccc3)C(=O)C21` (stereo unspecified), for which the TGI is over 100 µM in test [2]; over 100 µM in test [3]; 30.6 µM in test [4]; over 100 µM in test [11]; over 100 µM in test [7].
Take `CCCN(CCC)c1c([N+](=O)[O-])cc(C(=O)N(CCO)CCO)cc1[N+](=O)[O-]`: the TGI in test [2], in test [3] and in test [11] was over 100 µM each time.
Turning to `CCOC(=O)C(C)c1nc2ccc(C(F)(F)F)cc2[nH]c1=O` (stereo unspecified), the TGI in test [1], in test [2], in test [3], in test [4], in test [11] and in test [5] was over 100 µM in each case. In addition, the TGI in [6], in test [7], in test [8] and in test [9] was over 100 µM throughout.
Turning to `NC1Cc2ccccc2OC1=O` (stereo unspecified), the TGI in [2], in [3], in [10], in test [11], in test [5] and in test [6] was over 100 µM each time. Also, the TGI in test [7], in [8] and in test [9] was over 100 µM each time.
Turning to `C=CCCCCOC1C=CC(O)C(CO)O1` (stereo unspecified), the TGI in [1], in test [2], in [3], in [4], in test [11] and in test [5] was over 100 µM throughout. Also, the TGI in [6], in test [7], in [8] and in test [9] was over 100 µM throughout.
